Assay results taken from PubChem BioAssay AID248 (DTP/NCI, 2004).
“And” between values parts separate entries of the source, which are not always exact repeats. Identical values can stand only once. Inconclusive results and toxic doses are left out. Rule as the data show it: active = T/C of 150% or more; inactive = T/C below 125%.

System: L1210 leukemia ip in BDF1 mice, survival T/C
Test: NCI In Vivo Anticancer Drug Screen. Data for tumor model L1210 Leukemia (intraperitoneal) in B6D2F1 (BDF1) mice
Conditions: endpoint: mean survival time, higher = longer survival
How it was run: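 Ratio derived from survival: compound-dosed mice over vehicle-dosed mice, all bearing a transplantable tumor.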

[1] = dose: 100.0 mg/kg/injection, schedule: Q01DX009 (ip), vehicle: Klucel (hydroxypropylcellulose) (HPC)
[2] = dose: 100.0 mg/kg/injection, schedule: Q04DX003 (ip), vehicle: Klucel (hydroxypropylcellulose) (HPC)
[3] = dose: 200.0 mg/kg/injection, schedule: Q01DX009 (ip), vehicle: Klucel (hydroxypropylcellulose) (HPC)
[4] = dose: 200.0 mg/kg/injection, schedule: Q04DX003 (ip), vehicle: Klucel (hydroxypropylcellulose) (HPC)
[5] = dose: 400.0 mg/kg/injection, schedule: Q04DX003 (ip), vehicle: Klucel (hydroxypropylcellulose) (HPC)
[6] = dose: 12.5 mg/kg/injection, schedule: Q01DX009 (ip), vehicle: water
[7] = dose: 50.0 mg/kg/injection, schedule: Q01DX009 (ip), vehicle: water

Measured: T/C

CC1c2ccccc2N(CCCN(C)C)c2ccccc21
inactive: dose: 4.0 mg/kg/injection, schedule: Q01DX015 (ip), vehicle: saline 105 % of control | dose: 8.0 mg/kg/injection, schedule: Q01DX015 (ip), vehicle: saline 103 % of control | dose: 16.0 mg/kg/injection, schedule: Q01DX015 (ip), vehicle: saline 97 % of control | dose: 32.0 mg/kg/injection, schedule: Q01DX015 (ip), vehicle: saline 97 % of control and 100 % of control | dose: 50.0 mg/kg/injection, schedule: Q04DX003 (ip), vehicle: saline 108 % of control | dose: 64.0 mg/kg/injection, schedule: Q01DX015 (ip), vehicle: saline 97 % of control | dose: 128.0 mg/kg/injection, schedule: Q01DX015 (ip), vehicle: saline 92 % of control

Cc1ccc2nc[nH]c(=O)c2c1
inactive: dose: 100.0 mg/kg/injection, schedule: Q04DX002 (ip), vehicle: Klucel (hydroxypropylcellulose) (HPC) 106 % of control | dose: 200.0 mg/kg/injection, schedule: Q04DX002 (ip), vehicle: Klucel (hydroxypropylcellulose) (HPC) 103 % of control | dose: 400.0 mg/kg/injection, schedule: Q04DX002 (ip), vehicle: Klucel (hydroxypropylcellulose) (HPC) 103 % of control

Nc1[nH]c(=O)ncc1-c1cccc(Cl)c1
inactive: dose: 12.5 mg/kg/injection, schedule: Q01DX009 (ip), vehicle: Klucel (hydroxypropylcellulose) (HPC) 103 % of control | dose: 25.0 mg/kg/injection, schedule: Q01DX009 (ip), vehicle: Klucel (hydroxypropylcellulose) (HPC) 95 % of control | dose: 50.0 mg/kg/injection, schedule: Q01DX009 (ip), vehicle: Klucel (hydroxypropylcellulose) (HPC) 100 % of control and 103 % of control

ClCc1c(Cl)c(Cl)c(Cl)c(CCl)c1Cl
inactive: [1] 98 % of control | [2] 96 % of control | [3] 96 % of control | [4] 98 % of control | [5] 102 % of control

Cc1ccc(CN(CCO)Cc2ccccc2)cc1
inactive: dose: 3.12 mg/kg/injection, schedule: Q01DX009 (ip), vehicle: water 86 % of control | dose: 6.25 mg/kg/injection, schedule: Q01DX009 (ip), vehicle: water 89 % of control | [6] 93 % of control and 100 % of control | [7] 93 % of control

O=C1/C(=C\c2ccccc2)C(Br)c2ccccc21 (stereo not drawn)
inactive: [6] 95 % of control | dose: 12.5 mg/kg/injection, schedule: Q04DX003 (ip), vehicle: water 100 % of control | dose: 25.0 mg/kg/injection, schedule: Q01DX009 (ip), vehicle: water 97 % of control | dose: 25.0 mg/kg/injection, schedule: Q04DX003 (ip), vehicle: water 91 % of control | [7] 100 % of control | dose: 50.0 mg/kg/injection, schedule: Q04DX003 (ip), vehicle: water 92 % of control

CC1C2CC(C3(C)OCCO3)CCC2(C)CCC12OCCO2 (stereo not drawn)
inactive: [2] 101 % of control | [4] 106 % of control | [5] 106 % of control

CC(=O)OC1=C(c2ccccc2)C(=O)c2ccccc21
inactive: dose: 40.0 mg/kg/injection, schedule: Q01DX009 (ip), vehicle: Klucel (hydroxypropylcellulose) (HPC) 94 % of control | dose: 75.0 mg/kg/injection, schedule: Q01DX001 (ip), vehicle: Klucel (hydroxypropylcellulose) (HPC) 95 % of control | dose: 75.0 mg/kg/injection, schedule: Q01DX009 (ip), vehicle: Klucel (hydroxypropylcellulose) (HPC) 94 % of control | dose: 150.0 mg/kg/injection, schedule: Q01DX001 (ip), vehicle: Klucel (hydroxypropylcellulose) (HPC) 96 % of control | dose: 150.0 mg/kg/injection, schedule: Q01DX009 (ip), vehicle: Klucel (hydroxypropylcellulose) (HPC) 88 % of control

CCCCCCCCCCCCCCCCCCOCCCCCCCCCCCC
inactive: dose: 100.0 mg/kg/injection, schedule: Q01DX001 (ip), vehicle: other 97 % of control | dose: 200.0 mg/kg/injection, schedule: Q01DX001 (ip), vehicle: other 92 % of control | dose: 400.0 mg/kg/injection, schedule: Q01DX001 (ip), vehicle: other 93 % of control

O=C(COc1ccc(Cl)cc1)Nc1ccccc1Br
inactive: dose: 100.0 mg/kg/injection, schedule: Q04DX002 (ip), vehicle: saline + alcohol 96 % of control | dose: 200.0 mg/kg/injection, schedule: Q04DX002 (ip), vehicle: saline + alcohol 107 % of control | dose: 400.0 mg/kg/injection, schedule: Q04DX002 (ip), vehicle: saline + alcohol 103 % of control

Cn1nnc(CCCl)n1
inactive: dose: 100.0 mg/kg/injection, schedule: Q01DX001 (ip), vehicle: saline 110 % of control | dose: 200.0 mg/kg/injection, schedule: Q01DX001 (ip), vehicle: saline 91 % of control | dose: 400.0 mg/kg/injection, schedule: Q01DX001 (ip), vehicle: saline 95 % of control

NC(N)=NCCCC(NC(=O)OCc1ccccc1)C(=O)O (stereo not drawn)
inactive: [1] 106 % of control and 94 % of control | [2] 94 % of control and 97 % of control | [3] 109 % of control and 91 % of control | [4] 86 % of control and 99 % of control | dose: 400.0 mg/kg/injection, schedule: Q01DX009 (ip), vehicle: Klucel (hydroxypropylcellulose) (HPC) 97 % of control and 87 % of control | [5] 92 % of control

O=S(CCCl)CCCl
inactive: dose: 0.21 mg/kg/injection, schedule: Q04DX003 (ip), vehicle: Klucel (hydroxypropylcellulose) (HPC) 95 % of control | dose: 0.42 mg/kg/injection, schedule: Q04DX003 (ip), vehicle: Klucel (hydroxypropylcellulose) (HPC) 93 % of control | dose: 0.85 mg/kg/injection, schedule: Q04DX003 (ip), vehicle: Klucel (hydroxypropylcellulose) (HPC) 98 % of control | dose: 0.9 mg/kg/injection, schedule: Q01DX009 (ip), vehicle: Klucel (hydroxypropylcellulose) (HPC) 116 % of control | dose: 1.3 mg/kg/injection, schedule: Q01DX009 (ip), vehicle: Klucel (hydroxypropylcellulose) (HPC) 116 % of control | dose: 2.0 mg/kg/injection, schedule: Q04DX003 (ip), vehicle: Klucel (hydroxypropylcellulose) (HPC) 120 % of control | dose: 2.6 mg/kg/injection, schedule: Q04DX003 (ip), vehicle: Klucel (hydroxypropylcellulose) (HPC) 123 % of control | dose: 6.0 mg/kg/injection, schedule: Q04DX003 (ip), vehicle: Klucel (hydroxypropylcellulose) (HPC) 115 % of control | dose: 8.0 mg/kg/injection, schedule: Q01DX009 (ip), vehicle: Klucel (hydroxypropylcellulose) (HPC) 109 % of control | dose: 8.0 mg/kg/injection, schedule: Q04DX003 (ip), vehicle: Klucel (hydroxypropylcellulose) (HPC) 114 % of control | dose: 12.5 mg/kg/injection, schedule: Q04DX003 (ip), vehicle: Klucel (hydroxypropylcellulose) (HPC) 90 % of control | dose: 50.0 mg/kg/injection, schedule: Q04DX003 (ip), vehicle: Klucel (hydroxypropylcellulose) (HPC) 89 % of control

C/C=C1\CN2CCC34CC5C6CC7c8c(c9ccccc9n8C)CC(C6COC5(C)OC35C2CC1C(C(=O)OC)N5c1ccccc14)N7C (stereo not drawn)
inactive: dose: 100.0 mg/kg/injection, schedule: Q04DX003 (ip), vehicle: saline with Tween-80 87 % of control

O=C(NC(=S)Nc1ccc2ccccc2c1)c1ccc(Cl)cc1Cl
inactive: dose: 100.0 mg/kg/injection, schedule: Q01DX001 (ip), vehicle: saline with Tween-80 100 % of control | dose: 100.0 mg/kg/injection, schedule: Q04DX002 (ip), vehicle: saline with Tween-80 93 % of control and 90 % of control | dose: 200.0 mg/kg/injection, schedule: Q01DX001 (ip), vehicle: saline with Tween-80 101 % of control | dose: 200.0 mg/kg/injection, schedule: Q04DX002 (ip), vehicle: saline with Tween-80 93 % of control and 96 % of control | dose: 400.0 mg/kg/injection, schedule: Q01DX001 (ip), vehicle: saline with Tween-80 96 % of control | dose: 400.0 mg/kg/injection, schedule: Q04DX002 (ip), vehicle: saline with Tween-80 104 % of control and 86 % of control

COC(=O)c1cc(OC)cc(OC)c1
inactive: dose: 100.0 mg/kg/injection, schedule: Q04DX003 (ip), vehicle: other 88 % of control | dose: 200.0 mg/kg/injection, schedule: Q04DX003 (ip), vehicle: other 92 % of control | dose: 400.0 mg/kg/injection, schedule: Q04DX003 (ip), vehicle: other 97 % of control
